We go through 22 compounds from patent publication US8513271B2, “Pyrimidine compounds as delta opioid receptor modulators” (Janssen Pharmaceutica, NV, priority 2009, dated 2013).

Like-named read-outs stand apart in the source and are kept apart here.

The target in assay [1] is T1, delta opioid receptor (Rattus norvegicus, UniProt P33533).
T1 construct: the forebrains were homogenized in Tris buffer in a Teflon®-glass homogenizer; from tissue; host or cells: forebrain of male Wistar rats, particulate (membrane) preparation
The assay is described as follows: Rat brain delta opioid receptor binding assay. The settings on record: rat forebrain, [3H]naltrindole ligand.

Assay [2] has as its target T2, mu opioid receptor (Rattus norvegicus, UniProt P33535).
T2 construct: the forebrains were homogenized in Tris buffer in a Teflon®-glass homogenizer; from tissue; host or cells: forebrain of male Wistar rats, particulate (membrane) preparation
The assay is described as follows: Rat brain mu opioid receptor binding assay. The following applies: rat forebrain, [3H]DAMGO ligand.

For assay [3], the target named is T3, delta opioid receptor (Mus musculus, UniProt P32300).
T3 construct: NG108-15 cell membranes were purchased from Applied Cell Sciences (Rockville, Md.); host or cells: NG108-15 cell membranes
The assay is described as follows: [35S]GTPγS binding assay in NG108-15 cell membranes (delta opioid functional assay), 200 nM screen. The format is biochemical. The settings on record: for EC50 / GTPγS δ-opioid receptor Rel Efficacy: NG108-15 cell membranes; for EC50: averages if tested more than once; for GTPγS δ-opioid receptor Rel Efficacy: relative efficacy from dose response; for inhibition at 10 µM: read-out: GTPγS δ-opioid receptor % Inh @10 μM. Background: Binding of GTPγS marks nucleotide exchange on a G protein.

Assay [4] deals with T3, delta opioid receptor. The assay is described as follows: NG108-15, 24-well delta opioid receptor binding assay. The following applies: [3H]Naltrindole ligand, NG108-15 cell membranes; read-out: δ-binding NG108 cell membrane Ki.
[5] abbreviates: δ-binding (Naltrindole ligand) Ki.
The mark [6] stands for this setting: GTPγS δ-opioid receptor EC50 (μM).
[7] abbreviates: read-out: GTPγS δ-opioid receptor EC50.
Where [8] appears, read: read-out: δ-binding (Naltrindole ligand) Ki.

As a reminder, the Ki is a measure of affinity in units of concentration, obtained from inhibition or displacement. As usually defined, the EC50 is the concentration at which the effect is half-maximal.

T2 sequence (P33535 whole entry): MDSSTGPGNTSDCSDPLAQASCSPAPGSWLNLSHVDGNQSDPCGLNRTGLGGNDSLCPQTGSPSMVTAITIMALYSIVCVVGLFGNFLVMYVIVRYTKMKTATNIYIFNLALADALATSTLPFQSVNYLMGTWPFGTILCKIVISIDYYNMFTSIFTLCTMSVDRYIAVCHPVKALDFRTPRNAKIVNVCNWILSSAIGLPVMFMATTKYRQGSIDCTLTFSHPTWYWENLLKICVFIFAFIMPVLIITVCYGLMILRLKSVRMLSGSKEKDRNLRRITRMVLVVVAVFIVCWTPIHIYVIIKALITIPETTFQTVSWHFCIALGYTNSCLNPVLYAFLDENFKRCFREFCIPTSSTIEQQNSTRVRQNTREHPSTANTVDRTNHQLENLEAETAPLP
T3 sequence (P32300 whole entry): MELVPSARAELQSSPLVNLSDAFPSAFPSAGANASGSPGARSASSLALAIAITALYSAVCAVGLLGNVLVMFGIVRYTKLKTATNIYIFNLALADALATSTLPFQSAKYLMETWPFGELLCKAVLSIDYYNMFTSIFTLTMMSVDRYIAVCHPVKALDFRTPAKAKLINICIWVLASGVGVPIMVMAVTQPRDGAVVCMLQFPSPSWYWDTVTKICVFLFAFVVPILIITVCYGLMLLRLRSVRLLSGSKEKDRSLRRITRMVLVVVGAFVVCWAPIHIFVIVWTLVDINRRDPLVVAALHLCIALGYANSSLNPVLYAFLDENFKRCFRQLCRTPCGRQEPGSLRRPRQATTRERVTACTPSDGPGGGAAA
T1 sequence (P33533 whole entry): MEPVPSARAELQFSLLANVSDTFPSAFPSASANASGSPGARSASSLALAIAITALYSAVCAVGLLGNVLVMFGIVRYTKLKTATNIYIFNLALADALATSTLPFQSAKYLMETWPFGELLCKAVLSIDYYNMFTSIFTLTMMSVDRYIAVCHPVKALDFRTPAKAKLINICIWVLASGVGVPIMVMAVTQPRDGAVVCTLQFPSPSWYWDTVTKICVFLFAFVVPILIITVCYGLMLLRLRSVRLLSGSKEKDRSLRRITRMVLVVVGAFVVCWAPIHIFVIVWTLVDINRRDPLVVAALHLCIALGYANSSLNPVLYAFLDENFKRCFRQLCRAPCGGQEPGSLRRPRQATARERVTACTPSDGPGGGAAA

Regarding `COc1ccc(Oc2nc(-c3cncnc3)ncc2NC2CCCNC2)cc1` (stereo not drawn) [Cpd 109], the Ki in assay [1] (setting [5]) amounted to 1 nM; in assay [2] (μ-binding Ki), 522 nM. Besides, in assay [3] (setting [6]), a half-maximal effect (EC50) was put at 0.057 µM. The “GTPγS δ-opioid receptor Rel Efficacy” value in assay [3] is 1.102.
Turning to `O=C(O)c1ccc(Oc2nc(-c3cccnc3)ncc2NC[C@@H]2CCCN2)cc1` [Cpd 159], the Ki in assay [4] was 4.45 µM.
As to `COc1ccc(Oc2nc(-c3ccc(F)c(F)c3)ncc2NC[C@@H]2CCCN2)cc1` [Cpd 56], the Ki in assay [1] (setting [5]) was determined as 15 nM; in assay [2] (read-out: μ-binding Ki) it was 1940 nM. For the same compound, the half-maximal effective concentration (EC50) in assay [3] (setting [7]) was determined as 0.536 µM. Besides, the inhibition at 10 µM in assay [3] turned out to be 26.3%.
Regarding `COc1ccc(Oc2nc(-c3ccc4c(c3)CCO4)ncc2NC[C@@H]2CCCN2)cc1` [Cpd 63], the Ki was found to be 37 nM in assay [1] (setting [5]) and 633 nM in assay [2] (read-out: μ-binding Ki). Besides, in assay [3] (setting [7]), the EC50 stood at 0.693 µM.
Take `O=C(O)c1ccc(Oc2nc(-c3cncc(F)c3)ncc2NC[C@@H]2CCCN2)cc1` [Cpd 165]: in assay [4], the Ki turned out to be 3.76 µM.
For `O=C(c1ccc(Oc2nc(-c3cccnc3)ncc2NC[C@@H]2CCCN2)cc1)N1CCCC1` [Cpd 158], the Ki in assay [4] turned out to be 1.6 µM.
Turning to `COc1ccc(Oc2nc(-c3ccc(N)nc3)ncc2NC[C@@H]2CCCN2)cc1` [Cpd 72], in assay [1] (setting [8]), the Ki worked out at 2 nM. In addition, the Ki in assay [2] (read-out: μ-binding Ki) stood at 732 nM. In addition, in assay [3] (setting [7]), the EC50 was found to be 0.105 µM. In assay [3], the inhibition at 10 µM was found to be 15.2% and the “GTPγS δ-opioid receptor Rel Efficacy” value is 0.905.
With `COc1ccc(Oc2nc(-c3cnc(SC)nc3)ncc2NC[C@@H]2CCCN2)cc1` [Cpd 52], the Ki in assay [1] (setting [5]) came out at 0.4 nM; in assay [2] (read-out: μ-binding Ki), 539 nM.
Turning to `COc1ccc(Oc2nc(-c3cccc(F)c3)ncc2NC[C@@H]2CCCN2)cc1` [Cpd 38], the Ki in assay [1] (setting [5]) stood at 1 nM; in assay [2] (read-out: μ-binding Ki) it was 4910 nM.
Turning to `COc1ccc(Oc2nc(-c3cc(F)cc(F)c3)ncc2NC[C@@H]2CCCN2)cc1` [Cpd 55], the Ki in assay [1] (setting [5]) worked out at 21 nM; in assay [2] (read-out: μ-binding Ki), 2050 nM.
For `COc1ccc(Oc2nc(-c3cnc(N4CCOCC4)nc3)ncc2NC[C@@H]2CCCN2)cc1` [Cpd 83], the figures for the Ki in assay [1] (setting [5]) and in assay [2] (read-out: μ-binding Ki) were 14 nM and 673 nM, respectively.
For `COc1ccc(Oc2nc(-c3ccc4[nH]ccc4c3)ncc2NC[C@@H]2CCCN2)cc1` [Cpd 34], the Ki in assay [1] (setting [5]) and in assay [2] (μ-binding Ki) was 15 nM throughout.
With `O=C(O)c1cccc(Oc2nc(-c3cncc(F)c3)ncc2NC[C@@H]2CCCN2)c1` [Cpd 164], the inhibitory constant (Ki) in assay [4] came to 2.28 µM.
Turning to `CC(=O)Nc1ccc(Oc2nc(-c3cccnc3)ncc2NC[C@@H]2CCCN2)cc1` [Cpd 13], the figures for the Ki in assay [1] (setting [8]) and in assay [2] (read-out: μ-binding Ki) were 2 nM and 5570 nM, respectively.
`c1ncc(-c2ncc(NC[C@@H]3CCCN3)c(Oc3ccc4ncsc4c3)n2)cn1` [Cpd 85]: the Ki in assay [1] (setting [5]) is 2 nM; in assay [2] (read-out: μ-binding Ki), greater than 10000 nM. Further, in assay [3] (setting [7]), the EC50 is greater than 10 µM.
`COc1ccc(Oc2nc(-c3cc4ccccc4s3)ncc2NC[C@@H]2CCCN2)cc1` [Cpd 49]: the Ki is 103 nM in assay [1] (setting [8]) and 3560 nM in assay [2] (read-out: μ-binding Ki).
Consider `COc1ccc(Oc2nc(-c3ccc4c(c3)OCO4)ncc2NC[C@@H]2CCCN2)cc1` [Cpd 93], for which the values for the Ki in assay [1] (setting [5]) and in assay [2] (μ-binding Ki) were 8 nM and 554 nM, respectively. This compound also gave an EC50 in assay [3] (setting [6]) of 0.072 µM. Besides, in assay [3], the “GTPγS δ-opioid receptor Rel Efficacy” value turned out to be 1.115.
With `COc1ccc(Oc2nc(-c3ccsc3)ncc2NC[C@@H]2CCCN2)cc1` [Cpd 9], the Ki in assay [1] (setting [8]) came out at 1 nM; in assay [2] (read-out: μ-binding Ki), 2970 nM.
In the case of `N#Cc1cncc(-c2ncc(NC[C@@H]3CCCN3)c(Oc3ccc4ncsc4c3)n2)c1` [Cpd 86], the Ki in assay [1] (setting [5]) worked out at 2 nM; in assay [2] (read-out: μ-binding Ki), 1180 nM. For the same compound, the EC50 in assay [3] (setting [7]) was 0.386 µM.
For the compound `COc1ccc(Oc2nc(-c3nc4ccccc4s3)ncc2NC[C@@H]2CCCN2)cc1` [Cpd 47], the figures for the Ki in assay [1] (setting [5]) and in assay [2] (read-out: μ-binding Ki) were 6 nM and 1130 nM, respectively.
The corresponding values for `Oc1ccc(Oc2nc(-c3ccc(O)nc3)ncc2NCC2CCCN2)cc1` (stereo not drawn) [Cpd 75] are 36 nM and 5120 nM.
For `N#Cc1cncc(-c2ncc(NC[C@@H]3CCCN3)c(Oc3ccc(OC(F)F)cc3)n2)c1` [Cpd 110], the figures for the Ki in assay [1] (setting [5]) and in assay [2] (μ-binding Ki) were 33 nM and 1070 nM, respectively. This compound returned an EC50 in assay [3] (setting [6]) of 0.081 µM. Further, the “GTPγS δ-opioid receptor Rel Efficacy” value in assay [3] was 0.986.
